Measurements as given in US20220249674A1, “BIOACTIVE SAPONIN LINKED TO A FUNCTIONAL MOIETY” (priority 2019, published 2022).
Like-named read-outs stand apart in the source and are kept apart here.

Key:
A431 cells = type: cell-based, human; conditions: chloroquine coadministration, with cetuximab-saporin (FIG. 52)
Method: Cells were seeded in a 96 well plate at 5.000-10.000 c/w in 100 μL/well and incubated overnight at 37° C. […] The media was removed from the cell culture plate and replaced by 180 μL culture media, followed by the addition of 20 μL treatment-mix/well. […] In the case that endosomal acidification inhibitors (chloroquine (Sigma Aldrich) or bafilomycin A1 (Enzo Life Sciences)) were used, the cell culture media in step 1 of treatment was replaced by 180 μL media containing 1 μM chloroquine or 0.2 μM bafilomycin A1. The plate was incubated for 1 hour at 37° C., before the 10× treatment-mix samples were added. The remaining incubation and treatment steps were performed according to standard procedures known in the field.

HeLa cells [1] = experiment: Cell-based bioassay of chemically modified SO1861 with dianthin-EGF (Example 8)
Method: HeLa cells were incubated for 72 h with the following constructs and cell viability before and after the 72 h-incubation was assessed. In the experiments, cells were exposed to 1.5 μM dianthin-EGF conjugate. A negative control were cells incubated with buffer vehicle and 10 microgram/ml saponin, without dianthin-EGF. Cell viability was set to 100% for the control in which both saponin and EGF-dianthin were omitted. […] Cell viability after 72 h was essentially 0%. For the chemically modified saponin variants, 10 microgram/ml saponin was tested in combination with 1.5 μM dianthin-EGF.

[2] = system: EGFR expressing cells (e.g. A431, HeLa); type: cell-based; design: key: Cell killing activity (+ or −); Cell killing activity (+ or −)
From the text: The saponin is either linked to the ligand directly, or via a (cleavable) linker, via a scaffold, a carrier protein, etc., etc.

[3] = pH dependent hydrolysis of the hydrazone bond (MALDI-TOF-MS); type: physicochemical; conditions: HCl solution at pH 3
HeLa cells [4] = experiment: Cell viability assay, inhibition of SO1861-mediated endosomal escape by polymeric structures (Example 19); type: cell-based; conditions: SO1861 series + […] dianthin-EGF, 500 nM PAMAM (derivative) or chloroquine, 667 nM dendron
NIH-3T3 cells = conditions: saporins; cited from earlier work
[5] = combinatory treatment with saponins; cited from earlier work
mammalian cells = experiment: Cell-based bioassay of endosomal escape enhancement by QS-21; conditions: 2.5 microgram/ml; effector moiety EGF-dianthin
From the text: The effector moiety exposed to the cells was EGF-dianthin.

[6] = system: SK-BR-3, JIMT-1, MDA-MB-468, A431, CaSki, HeLa, A2058, BT-474; experiment: Relative cell viability, mAb / toxin / mAb-toxin monotherapy (FIG. 11); type: cell-based; design: dose or concentration left out as unconfirmed; conditions: panel of cell lines
Method: After treatment the cells were incubated for 72 hr at 37° C. before the cell viability was determined by a MTS-assay, performed according to the manufacturer's instruction (CellTiter 96® AQueous One Solution Cell Proliferation Assay, Promega). Briefly, the MTS solution was diluted 20× in DMEM without phenol red (PAN-Biotech GmbH) supplemented with 10% FBS (PAN-Biotech GmbH). […] Subsequently, the optical density at 492 nm was measured on a Thermo Scientific Multiskan FC plate reader (Thermo Scientific). For quantification the background signal of ‘medium only’ wells was subtracted from all other wells, before the ratio of untreated/treated cells was calculated, by dividing the background corrected signal of untreated wells over the background corrected signal of the treated wells.

CC(=O)OC1C(C)OC(OC2C(C)OC(OC(=O)[C@]34CCC(C)(C)CC3C3=CCC5[C@@]6(C)CC[C@H](OC7OC(C(=O)O)C(O)C(OC8OCC(O)C(O)C8O)C7OC7OC(CO)C(O)C(O)C7O)[C@@](C)(/C=N/NC(=O)CCCCCN7C(=O)C=CC7=O)C6CC[C@@]5(C)[C@]3(C)C[C@H]4O)C(OC3OC(C)C(OC4OCC(O)C(OC5OC(CO)C(O)C(O)C5O)C4O)C(O)C3O)C2O)C(O)C1OC1OCC(O)C(O)C1O (some centres unmarked) [SO1861-EMCH]
activity when endosomal acidification is blocked (in words) (A431 cells): strongly reduces the activity | cell viability (in words) (HeLa cells [1]): reduced cell viability | Cell killing activity ([2]; 10 μg/ml SO1861 (conjugate) + […] EGFdianthin): + | Cell killing activity ([2]; 10 μg/ml SO1861 (conjugate), without EGFdianthin): − | hydrolysis of the hydrazone bond (in words) [3]: responsive towards hydrolysis and gets cleaved

CCN(CC)CCCC(C)Nc1ccnc2cc(Cl)ccc12 (centres unmarked) [chloroquine]
inhibition of SO1861-mediated endosomal escape of the targeted toxin (in words) (HeLa cells [4]): inhibit the SO1861-mediated endosomal escape of the targeted toxin

CC1(C)[C@@H](O[C@H]2O[C@H](C(=O)O)[C@@H](O)[C@H](O)[C@H]2O[C@@H]2O[C@H](C(=O)O)[C@@H](O)[C@H](O)[C@H]2O)CC[C@]2(C)[C@H]3C(=O)C=C4[C@@H]5C[C@@](C)(C(=O)O)CC[C@]5(C)CC[C@@]4(C)[C@]3(C)CC[C@@H]12 [glycyrrhizic acid]
enhancing effect on toxin toxicity (in words) (NIH-3T3 cells): do hardly have any positive effect

Pseudomonas exotoxin A: bacterial toxin
enhancement of cytotoxicity by saponins (in words) [5]: remained unaffected

QS-21
endosomal escape enhancement (in words) (mammalian cells): capable of enhancing endosomal escape

helianthoside
enhancing effect on toxin toxicity (in words) (NIH-3T3 cells): do hardly have any positive effect

saporin
relative cell viability (in words) [6]: do not or hardly have any influence on cell viability
